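Briefly, cells in 96-well plates were exposed to five compound concentrations for 48 h, and endpoints were estimated by linear interpolation. GI50 marks 50% less growth. Definition used: TGI = concentration required for complete inhibition of growth.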
Legend:
Experiment in all cases: DTP human tumour cell line panel, 48 h; in the data active = GI50 below about 0.43 µM; inactive = the rest
[1] = system: SN12C renal
[2] = system: SNB-75 CNS
[3] = system: SF-295 CNS
[4] = system: BT-549 breast
[5] = system: HCT-116 colon
[6] = system: NCI-H23 lung
[7] = system: CAKI-1 renal
[8] = system: SR leukemia
[9] = system: T-47D breast
[10] = system: MDA-MB-435
[11] = system: CCRF-CEM leukemia
[12] = system: COLO 205 colon
[13] = system: UACC-257 melanoma
[14] = system: SK-MEL-28 melanoma
[15] = system: SW-620 colon
[16] = system: SK-OV-3 ovarian
[17] = system: NCI-H226 lung
[18] = system: HOP-62 NSCLC
[19] = system: UO-31 renal
[20] = system: 786-0 renal
[21] = system: KM12 colon
[22] = system: K-562 leukemia
[23] = system: SF-539 CNS
[24] = system: LOX IMVI melanoma
[25] = system: M14 melanoma
[26] = system: A549 NSCLC
[27] = system: HL-60(TB) leukemia
[28] = system: TK-10 renal
[29] = system: UACC-62 melanoma
[30] = system: MOLT-4 leukemia
[31] = system: ACHN renal
[32] = system: RXF 393 renal
[33] = system: EKVX NSCLC
[34] = system: NCI/ADR-RES ovarian
[35] = system: SF-268 CNS
[36] = system: SK-MEL-2 melanoma
[37] = system: HCT-15 colon
[38] = system: OVCAR-8 ovarian
[39] = system: DU-145 prostate
[40] = system: SNB-19 CNS
[41] = system: HOP-92 NSCLC
[42] = system: NCI-H460 lung
[43] = system: MDA-MB-231 breast
[44] = system: MALME-3M melanoma
[45] = system: MCF7 breast
[46] = system: OVCAR-4 ovarian
[47] = system: PC-3 prostate
[48] = system: OVCAR-3 ovarian
[49] = system: HT29 colon
[50] = system: OVCAR-5 ovarian
[51] = system: U251 CNS
[52] = system: SK-MEL-5 melanoma
[53] = system: IGROV1 ovarian

Cn1ncc2c(Sc3ccc(Cl)cc3)ncnc21
inactive: GI50 [1] 7.37 µM | GI50 [2] 22.9 µM | GI50 [3] 9.58 µM | GI50 [4] 27.3 µM | GI50 [5] 55.1 µM | GI50 [6] 15.9 µM | GI50 [7] 15.4 µM | GI50 [8] 20.6 µM | GI50 [9] 14.4 µM | GI50 [10] 22.5 µM | GI50 [11] 4.8 µM | GI50 [12] > 100 µM | GI50 [13] > 100 µM | GI50 [14] > 100 µM | GI50 [15] > 100 µM | GI50 [16] 67.9 µM | GI50 [17] 36.5 µM | GI50 [18] 28.8 µM | GI50 [19] 5.53 µM | GI50 [20] 44.1 µM | GI50 [21] 11.6 µM | GI50 [22] > 100 µM | GI50 [23] 68.1 µM | GI50 [24] 12 µM | GI50 [25] 93.5 µM | GI50 [26] 18.8 µM | GI50 [27] 11.3 µM | GI50 [28] > 100 µM | GI50 [29] 77.8 µM | GI50 [30] 10.3 µM | GI50 [31] > 100 µM | GI50 [32] 98.4 µM | GI50 [33] 10.5 µM | GI50 [34] 21.7 µM | GI50 [35] 7.26 µM | GI50 [36] > 100 µM | GI50 [37] > 100 µM | GI50 [38] > 100 µM | GI50 [39] 36.1 µM | GI50 [40] 26.9 µM | GI50 [41] 3.31 µM | GI50 [42] 21.3 µM | GI50 [43] 13.2 µM | GI50 [44] 57.4 µM | GI50 [45] > 100 µM | GI50 [46] 36 µM | GI50 [47] 7.03 µM | GI50 [48] 36.5 µM | GI50 [49] > 100 µM | GI50 [50] > 100 µM | GI50 [51] 16.2 µM | GI50 [52] 51.5 µM | GI50 [53] 4.36 µM
49.8 µM: TGI [53]
> 100 µM: TGI [1] | TGI [2] | TGI [3] | TGI [4] | TGI [5] | TGI [6] | TGI [7] | TGI [8] | TGI [9] | TGI [10] | TGI [11] | TGI [12] | TGI [13] | TGI [14] | TGI [15] | TGI [16] | TGI [17] | TGI [18] | TGI [19] | TGI [20] | TGI [21] | TGI [22] | TGI [23] | TGI [24] | TGI [25] | TGI [26] | TGI [27] | TGI [28] | TGI [29] | TGI [30] | TGI [31] | TGI [32] | TGI [33] | TGI [34] | TGI [35] | TGI [36] | TGI [37] | TGI [38] | TGI [39] | TGI [40] | TGI [41] | TGI [42] | TGI [43] | TGI [44] | TGI [45] | TGI [46] | TGI [47] | TGI [48] | TGI [49] | TGI [50] | TGI [51] | TGI [52]

Source: PubChem BioAssay (NCI)
